Like-named read-outs stand apart in the source and are kept apart here. One block for each compound: values may come before it. Where a SMILES comes first, the peptide text is derived from it. Where no end group is shown, it is not given here.
Tests used:
[1] = target: recombinant alpha-glucosidase from Saccharomyces cerevisiae, which is a maltase (Saccharomyces cerevisiae, UniProt P53341); experiment: biochemical; conditions: for inhibition of alpha-glucosidase in words: relative to the AP and VAP peptides; for median inhibitory concentration of alpha-glucosidase (maltase), times lower relative to the reference inhibitors: relative to acarbose and miglitol
Description: The synthetic peptides were supplied by GENOSPHERE Biotechnologies.
The alpha-glucosidase used is the recombinant alpha-glucosidase from Saccharomyces cerevisiae, which is a maltase.
The samples were solubilized beforehand in deionized water containing 10% of DMSO (dimethyl sulphoxide).
After incubation at 37° C. for 20 minutes, 20 μL of the substrate p-NPG (p-nitrophenyl glucopyranoside) at 2.5 mM (prepared in the same buffer as mentioned above) was added to the mixture in order to start the reaction.
The reaction medium was incubated for 30 minutes at 37° C. and then the reaction was stopped by adding 80 μL of a solution of sodium carbonate (Na2CO3) at 0.3M.
The quantity of product formed (p-nitrophenyl (p-NP) of yellow colour) was measured by spectrophotometry (absorbance at 410 nm, VersaMax™, Microplate Reader).
The test was carried out in a 96-well microplate.
All the inhibition tests were carried out in triplicate.
The percentage inhibition was calculated from the following equation: […]
OD sample assay corresponds to the optical density obtained for the mixture “sample+enzyme+substrate”.
OD assay blank corresponds to the optical density obtained for the mixture “sample+buffer”.
OD control assay corresponds to the optical density obtained for the mixture “buffer+enzyme+substrate”.
OD control blank corresponds to the optical density obtained for the buffer.

[2] = target: T1, recombinant alpha-glucosidase from S. cerevisiae (maltase) (Saccharomyces cerevisiae, UniProt P53341); experiment: biochemical; format: biochemical; conditions: for IC50: Table 2; for inhibition of α-glucosidase in words: relative to acarbose, miglitol and voglibose
T1 construct: purchased Sigma G0660-750UN
Description: 20 μl of α-glucosidase in 0.1M potassium phosphate buffer (pH 6.8) at 1.6 U/ml is mixed with 8 μl of the peptide sample or of the reference inhibitor at different concentrations.
The samples are solubilized beforehand in milliQ water containing 10% DMSO (available from Sigma under reference 472301).
After preincubation at 37° C. for 15 min, 20 μl of the substrate p-NPG at 20 mM in 0.1M potassium phosphate buffer (pH 6.8) is added to the mixture in order to start the reaction.
The reaction medium is incubated for 30 min at 37° C. and then the reaction is stopped by adding 80 μl of a 1M solution of sodium carbonate (Na2CO3).
The quantity of product formed (p-nitrophenyl) is measured by reading the absorbance at 410 nm using the Fluostar Omega spectrophotometer (BMG Labtech, Germany).
(§1) All the inhibition tests are carried out in triplicate.
The enzyme used is recombinant alpha-glucosidase from S. cerevisiae (it is a maltase available from Sigma, under reference G0660-750UN).
The substrate used is 4-nitrophenyl α-D-glucopyranoside (p-NPG) (available from Sigma under reference N1377).

DPP-IV from pig kidney = target: T2, DPP-IV from pig kidney (Sus scrofa, UniProt P22411); experiment: In-vitro determination of the inhibition of DPP-IV by synthetic peptides (Example 14); format: biochemical; conditions: for IC50 / inhibitory activity of DPP-IV (IC50) in mmol/l: Table 13, substrate Gly-L-Pro-p-nitroanilide, pH 8.0, 37° C.; for IC50: read-out: inhibitory activity of DPP-IV (IC50); for inhibition of DPP-IV in words: relative to the reference Diprotin A
T2 construct: The enzyme used is DPP-IV from pig kidney; purchased Sigma D7052; host or cells: pig kidney
Description: The inhibitory activity of synthetic peptides can be measured in vitro according to the following protocol:
25 μl of the substrate Gly-L-Pro-p-nitroanilide in 0.1 M Tris-HCL buffer (pH 8.0) at 1.6 mM is mixed with 25 μl of the peptide sample or of reference inhibitor at different concentrations. The samples are solubilized beforehand in Tris HCL buffer (pH8.0).
After preincubation at 37° C. for 10 min, 50 μl of the DPP-IV enzyme at a concentration of 0.01 U/ml in 0.1 M Tris-HCL buffer (pH 8.0) is added to the mixture in order to start the reaction. The reaction medium is incubated for 60 min at 37° C. and then the reaction is stopped by adding 100 μl of 1M sodium acetate buffer (pH4).
The quantity of product formed (p-nitroanilide) is measured by reading the absorbance at 385 nm using the Fluostar Omega spectrophotometer (BMG Labtech, Germany).
as §1
The substrate used is Gly-L-Pro-p-nitroanilide hydrochloride (available from Sigma under reference G0513).
The enzyme used is DPP-IV from pig kidney (available from Sigma under reference D7052).
The reference inhibitor is Diprotin A, corresponding to the Ile-Pro-Ile tripeptide (available from Sigma under reference 19759).

saccharase = saccharase (Homo sapiens, UniProt P14410); conditions: in particular saccharase; cited from earlier work
db/db mice = experiment: Oral test of tolerance to maltose in vivo in db/db mice (Example 5); conditions: maltose 2 g/kg; for effect on the glycaemia of the mice during the test of tolerance to maltose: alone or in combination
Description: The inhibitory activity of the AP and VAP peptides and the effect of the AP and VAP peptides on the glycaemic response can be measured in an oral test of tolerance to maltose in vivo in db/db mice that have a glucose intolerance of genetic origin. The mice are 4 weeks of age and each mouse is its own control. A dose of maltose (2 g/kg) was used in order to cause a temporary increase in glycaemia. Four (4) oral tests of tolerance to maltose (2 g/kg) were carried out on each mouse with a minimum interval of 48 h. The order was determined so as to cancel a potentially confounding effect of a change in body composition of the mice during the 3 study weeks. […] The maltose and the test products were administered directly by the oral route (gastric gavage), diluted in 0.9% saline solution. […] • Main Criterion: […] […] The secondary criteria for evaluation were: […] The AUC (area under the curve) was estimated by the trapezium method.

α-glucosidase = experiment: In-vitro determination of the type of inhibition (Lineweaver-Burk, hydrolysis of p-NPG); format: biochemical; conditions: straight lines intersect at 1/Vmax
Description: The three straight lines are as follows: • Filled circle: […] • Empty circle: test in the presence of 50 μM of AP • Filled triangle: test in the presence of 100 μM of AP
Based on the initial rates, the Lineweaver-Burk representations for each concentration of inhibitor LKP were shown and the type of inhibition was determined. The synthetic LKP peptide was supplied by GENOSPHERE Biotechnologies.
Based on the initial rates, the Lineweaver-Burk representations for each concentration of inhibitor AP were shown and the type of inhibition was determined.

[3] = Table 1, enzyme 0.2 U/mL, p-NPG 2.5 mM, pH 6.8, 37° C., read-out: Inhibitory activity on α-glucosidase (IC50)
[4] = enzyme 1.6 U/ml, p-NPG 20 mM, pH 6.8, 37° C., read-out: Inhibitory activity on α-glucosidase (IC50)
[5] = read-out: Inhibitory activity on α-glucosidase (IC50) in mg/ml (converted)
[6] = Inhibitory activity on α-glucosidase (IC50) in mg/ml
[7] = Table 1, enzyme 0.2 U/mL, p-NPG 2.5 mM, pH 6.8, 37° C.
[8] = Inhibitory activity on α-glucosidase (IC50) in mmol/l, enzyme 1.6 U/ml, p-NPG 20 mM, pH 6.8, 37° C.

T2 sequence (P22411 whole entry): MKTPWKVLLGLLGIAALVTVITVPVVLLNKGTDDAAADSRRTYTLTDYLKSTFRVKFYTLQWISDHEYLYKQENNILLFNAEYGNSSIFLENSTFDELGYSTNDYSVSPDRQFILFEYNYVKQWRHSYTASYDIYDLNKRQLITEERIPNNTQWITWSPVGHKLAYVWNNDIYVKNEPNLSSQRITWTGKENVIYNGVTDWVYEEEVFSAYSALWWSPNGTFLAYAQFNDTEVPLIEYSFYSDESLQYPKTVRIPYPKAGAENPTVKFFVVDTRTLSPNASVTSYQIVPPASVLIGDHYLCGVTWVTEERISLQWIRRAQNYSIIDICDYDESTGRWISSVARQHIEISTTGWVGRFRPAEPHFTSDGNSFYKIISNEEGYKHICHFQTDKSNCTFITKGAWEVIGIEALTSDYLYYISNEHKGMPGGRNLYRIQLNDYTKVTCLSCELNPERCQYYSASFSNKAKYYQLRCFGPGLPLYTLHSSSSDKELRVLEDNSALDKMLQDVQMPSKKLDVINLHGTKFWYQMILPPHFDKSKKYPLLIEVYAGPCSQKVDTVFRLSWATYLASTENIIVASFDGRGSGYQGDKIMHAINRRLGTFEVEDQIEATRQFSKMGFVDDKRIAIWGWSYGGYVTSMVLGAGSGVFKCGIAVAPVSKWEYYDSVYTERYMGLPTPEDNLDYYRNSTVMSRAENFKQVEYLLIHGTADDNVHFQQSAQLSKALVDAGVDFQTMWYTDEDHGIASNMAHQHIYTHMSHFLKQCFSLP
T1 sequence (P53341 whole entry): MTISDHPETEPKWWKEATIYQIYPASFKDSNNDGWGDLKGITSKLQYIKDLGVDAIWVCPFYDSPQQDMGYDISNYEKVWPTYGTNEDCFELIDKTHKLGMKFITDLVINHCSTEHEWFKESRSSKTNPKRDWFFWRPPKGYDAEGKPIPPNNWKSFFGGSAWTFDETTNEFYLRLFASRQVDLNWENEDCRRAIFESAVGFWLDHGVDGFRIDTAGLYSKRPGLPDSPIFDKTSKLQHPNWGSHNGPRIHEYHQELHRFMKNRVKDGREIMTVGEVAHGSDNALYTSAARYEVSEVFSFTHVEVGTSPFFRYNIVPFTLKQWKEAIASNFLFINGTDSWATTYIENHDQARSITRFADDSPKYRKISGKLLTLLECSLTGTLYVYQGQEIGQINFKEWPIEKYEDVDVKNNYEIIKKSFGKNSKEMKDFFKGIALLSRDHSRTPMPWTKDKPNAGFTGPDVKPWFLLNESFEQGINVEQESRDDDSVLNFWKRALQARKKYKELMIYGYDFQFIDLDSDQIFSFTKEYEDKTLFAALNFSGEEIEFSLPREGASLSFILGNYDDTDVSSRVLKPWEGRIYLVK
Sequence of recombinant alpha-glucosidase from Saccharomyces cerevisiae, which is a maltase (P53341 whole entry): as above
Sequence of saccharase (P14410 whole entry): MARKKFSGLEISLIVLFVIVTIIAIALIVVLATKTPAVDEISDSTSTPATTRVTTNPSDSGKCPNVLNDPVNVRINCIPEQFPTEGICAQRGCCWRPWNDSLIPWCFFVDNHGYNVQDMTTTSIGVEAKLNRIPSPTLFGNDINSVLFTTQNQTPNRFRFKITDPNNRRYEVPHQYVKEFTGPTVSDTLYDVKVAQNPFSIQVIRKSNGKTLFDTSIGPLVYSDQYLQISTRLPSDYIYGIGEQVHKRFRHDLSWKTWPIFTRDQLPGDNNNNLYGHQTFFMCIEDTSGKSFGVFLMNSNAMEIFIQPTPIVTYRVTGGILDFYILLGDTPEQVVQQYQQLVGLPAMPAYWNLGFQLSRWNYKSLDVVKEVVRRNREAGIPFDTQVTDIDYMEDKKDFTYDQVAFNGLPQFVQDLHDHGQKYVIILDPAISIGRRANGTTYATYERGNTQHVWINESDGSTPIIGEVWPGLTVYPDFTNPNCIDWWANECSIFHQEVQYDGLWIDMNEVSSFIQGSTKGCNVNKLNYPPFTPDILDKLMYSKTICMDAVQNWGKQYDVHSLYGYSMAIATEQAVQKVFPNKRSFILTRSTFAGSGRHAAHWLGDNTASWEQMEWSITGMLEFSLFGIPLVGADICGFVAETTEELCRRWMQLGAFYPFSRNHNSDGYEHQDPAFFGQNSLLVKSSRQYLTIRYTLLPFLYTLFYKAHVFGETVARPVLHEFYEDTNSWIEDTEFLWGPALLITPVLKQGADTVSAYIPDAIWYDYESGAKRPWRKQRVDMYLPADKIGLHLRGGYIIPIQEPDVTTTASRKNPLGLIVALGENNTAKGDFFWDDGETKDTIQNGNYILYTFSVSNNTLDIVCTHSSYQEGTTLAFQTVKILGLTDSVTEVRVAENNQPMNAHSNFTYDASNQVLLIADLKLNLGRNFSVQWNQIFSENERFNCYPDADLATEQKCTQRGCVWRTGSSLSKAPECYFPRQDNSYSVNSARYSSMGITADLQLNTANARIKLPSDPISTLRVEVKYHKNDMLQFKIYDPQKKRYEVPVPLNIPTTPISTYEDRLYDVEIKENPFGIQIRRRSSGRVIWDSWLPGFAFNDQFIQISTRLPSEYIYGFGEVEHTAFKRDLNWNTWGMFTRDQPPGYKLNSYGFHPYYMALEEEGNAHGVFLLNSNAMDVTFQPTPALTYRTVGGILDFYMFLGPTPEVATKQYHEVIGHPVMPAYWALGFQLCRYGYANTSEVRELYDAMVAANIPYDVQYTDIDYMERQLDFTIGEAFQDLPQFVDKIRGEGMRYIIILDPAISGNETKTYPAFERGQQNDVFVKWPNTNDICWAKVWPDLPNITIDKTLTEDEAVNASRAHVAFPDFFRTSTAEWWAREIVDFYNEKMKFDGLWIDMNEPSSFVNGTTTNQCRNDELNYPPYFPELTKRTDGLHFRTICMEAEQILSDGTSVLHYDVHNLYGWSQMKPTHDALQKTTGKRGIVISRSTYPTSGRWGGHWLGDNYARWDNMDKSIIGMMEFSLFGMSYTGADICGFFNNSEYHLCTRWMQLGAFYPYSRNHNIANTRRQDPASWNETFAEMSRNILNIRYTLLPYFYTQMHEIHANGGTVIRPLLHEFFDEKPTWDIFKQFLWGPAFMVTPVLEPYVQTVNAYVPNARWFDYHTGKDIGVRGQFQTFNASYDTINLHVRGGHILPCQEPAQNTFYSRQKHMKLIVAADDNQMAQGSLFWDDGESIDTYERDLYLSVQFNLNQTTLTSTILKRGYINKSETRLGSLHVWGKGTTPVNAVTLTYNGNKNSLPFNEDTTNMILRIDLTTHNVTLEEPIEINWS

Compound: NCCCC[C@H](N)C(=O)N[C@@H](Cc1c[nH]c2ccccc12)C(=O)O [KW] (H-Lys-Trp-OH; N-terminus and C-terminus assumed)
IC50 [1, 3]: 12.8 ± 0.98 mM
inhibition of alpha-glucosidase in words [1]: weak inhibitors
IC50 [2, 4]: 12.8 ± 0.98 mM
IC50 [2, 5]: 12.7 mM

Compound: CC(C)[C@H](N)C(=O)N[C@@H](C)C(=O)N1CCC[C@H]1C(=O)NCC(=O)O [VAPG] (H-VAPG-OH; N-terminus and C-terminus assumed)
IC50 (DPP-IV from pig kidney): 2.27 ± 0.131 mM
IC50 [2, 6]: 4.05 mM

Compound: VIY: peptide sequence VIY of Table 1
Inhibitory activity on α-glucosidase (IC50) in mM [1, 7]: No inhibition

Compound: OCCN1C[C@H](O)[C@@H](O)[C@H](O)[C@H]1CO [Miglitol, miglitol, reference compound]
IC50 [1, 3]: 39 ± 0.96 mM
mode of inhibition of alpha-glucosidase (saccharase): competitively and reversibly
IC50 [2, 6]: 37.5 mM
IC50 [2, 8]: 37.5 ± 0.69 mM

Compound: CC[C@H](C)[C@H](N)C(=O)N[C@@H](Cc1ccc(O)cc1)C(=O)O [IY] (H-Ile-Tyr-OH; N-terminus and C-terminus assumed)
IC50 [1, 3]: 12.3 mM
inhibition of alpha-glucosidase in words [1]: weak inhibitors
IC50 [2, 4]: 12.3 ± 0.25 mM
IC50 [2, 5]: 12.2 mM

Compound: NCCCC[C@H](N)C(=O)N[C@@H](Cc1ccc(O)cc1)C(=O)O [KY]
IC50 [1, 3]: 10.96 ± 0.1 mM
inhibition of alpha-glucosidase in words [1]: weak inhibitors
inhibitory activity of DPP-IV (IC50) in mmol/l (DPP-IV from pig kidney): No inhibition
IC50 [2, 4]: 10.96 ± 0.1 mM
IC50 [2, 5]: 10.9 mM

Compound: CC(C)[C@H](N)C(=O)N[C@@H](Cc1ccc(O)cc1)C(=O)O [VY] (H-Val-Tyr-OH; N-terminus and C-terminus assumed)
inhibition of alpha-glucosidase in words [1]: weak inhibitors
inhibitory activity of DPP-IV (IC50) in mmol/l (DPP-IV from pig kidney): No inhibition
IC50 [2, 5]: 2.7 mM

Compound: VAPFPEV [VAPFPEV]
IC50 (DPP-IV from pig kidney): 1.184 ± 0.008 mM
IC50 [2, 6]: 2.68 mM

Compound: CC(C)C[C@H](NC(=O)[C@@H]1CCCN1C(=O)CN)C(=O)O [GPL] (H-Gly-Pro-Leu-OH; N-terminus and C-terminus assumed)
IC50 [1, 3]: 4.82 ± 0.15 mM
inhibition of alpha-glucosidase in words [1]: weak inhibitors
IC50 (DPP-IV from pig kidney): 1.85 ± 0.298 mM
IC50 [2, 4]: 4.82 ± 0.15 mM
IC50 [2, 5]: 4.81 mM

inhibitory activity of DPP-IV (IC50) in mmol/l (DPP-IV from pig kidney): No inhibition
Compound: AVIPIPT

Compound: C[C@H](N)C(=O)N1CCC[C@H]1C(=O)O [AP] (H-Ala-Pro-OH; N-terminus and C-terminus assumed)
maximum glycaemia value subtracted from the resting value (ΔCmax glycaemia) (db/db mice; 500 mg/kg by gastric gavage, resting value 150 mg/dl): approximately 280 mg/dl
effect on the glycaemia of the mice during the test of tolerance to maltose (db/db mice; 500 mg/kg): lower the glycaemia
effect of treatment on the maximum glycaemia value (db/db mice; 500 mg/kg): significant effect
effect on the glucose AUC during the oral test of tolerance to maltose (db/db mice; 500 mg/kg, 0-120 minutes): beneficial effect
type of inhibition of the degradation of p-NPG (α-glucosidase): competitive
IC50 ([1]; IC50 on α-glucosidase): 0.0136 ± 0.00092 mM
median inhibitory concentration of alpha-glucosidase (maltase), times lower relative to the reference inhibitors [1]: approximately 900 times
IC50 (DPP-IV from pig kidney): 4.78 ± 0.284 mM
inhibition of DPP-IV in words (DPP-IV from pig kidney): very weakly
IC50 [2, 6]: 0.0134 mM
inhibition of α-glucosidase in words [2]: strongly inhibit

Compound: VGVAPG [VGVAPG]
IC50 (DPP-IV from pig kidney): 10.7 ± 0.769 mM
IC50 [2, 6]: 4.58 mM
IC50 [2, 8]: 4.59 ± 0.06 mM

Compound: SAPLRVY [SAPLRVY]
IC50 (DPP-IV from pig kidney): 1.06 ± 0.031 mM
IC50 [2, 6]: 1.76 mM
IC50 [2, 8]: 1.76 ± 0.18 mM

Compound: CC(C)[C@H](N)C(=O)N[C@@H](C)C(=O)N1CCC[C@H]1C(=O)O [VAP] (H-Val-Ala-Pro-OH; N-terminus and C-terminus assumed)
effect on the glycaemia of the mice during the test of tolerance to maltose (db/db mice; 500 mg/kg): lower the glycaemia
IC50 ([1]; read-out: IC50 on α-glucosidase): 0.02 ± 0.00021 mM
median inhibitory concentration of alpha-glucosidase (maltase), times lower relative to the reference inhibitors [1]: approximately 600 times
IC50 (DPP-IV from pig kidney): 4.82 ± 2.3 mM
inhibition of DPP-IV in words (DPP-IV from pig kidney): very weakly
IC50 [2, 5]: 0.02 mM
inhibition of α-glucosidase in words [2]: strongly inhibit

Compound: CC(C)C[C@H](N)C(=O)N[C@@H](CCCCN)C(=O)N1CCC[C@H]1C(=O)O [LKP] (H-Leu-Lys-Pro-OH; N-terminus and C-terminus assumed)
type of inhibition of the degradation of p-NPG (α-glucosidase): competitive
IC50 ([1]; Inhibitory activity on α-glucosidase (IC50) in mM, Table 1, enzyme 0.2 U/mL, p-NPG 2.5 mM, pH 6.8, 37° C.): 7.11 ± 0.2 mM
inhibition of alpha-glucosidase in words [1]: weak inhibitors
IC50 [2, 6]: 7.1 mM
IC50 [2, 8]: 7.11 ± 0.2 mM

Compound: AVPYQR [AVPYQR]
IC50 (DPP-IV from pig kidney): 5.7 ± 0.08 mM
IC50 [2, 6]: 3.19 mM

Compound: AKK: synthetic peptide of sequence AKK
Inhibitory activity on α-glucosidase (IC50) in mM [1, 7]: No inhibition

Reference: US10500245B2, “Compositions for preventing and/or treating pathological conditions associated with alpha-glucosidase” (UNIVERSITE DE LA ROCHELLE, priority 2014, dated 2019)
